Tests used:
Format in all cases: cell-based
IRAK4 [1] = target: T1, IRAK4 (Homo sapiens, UniProt Q9NWZ3); experiment: THP-1 degradation assay (western blot, % IRAK4 degraded after 24 hours); design: endogenous in cells; conditions: THP-1 cells
T1 sequence (Q9NWZ3 1-460): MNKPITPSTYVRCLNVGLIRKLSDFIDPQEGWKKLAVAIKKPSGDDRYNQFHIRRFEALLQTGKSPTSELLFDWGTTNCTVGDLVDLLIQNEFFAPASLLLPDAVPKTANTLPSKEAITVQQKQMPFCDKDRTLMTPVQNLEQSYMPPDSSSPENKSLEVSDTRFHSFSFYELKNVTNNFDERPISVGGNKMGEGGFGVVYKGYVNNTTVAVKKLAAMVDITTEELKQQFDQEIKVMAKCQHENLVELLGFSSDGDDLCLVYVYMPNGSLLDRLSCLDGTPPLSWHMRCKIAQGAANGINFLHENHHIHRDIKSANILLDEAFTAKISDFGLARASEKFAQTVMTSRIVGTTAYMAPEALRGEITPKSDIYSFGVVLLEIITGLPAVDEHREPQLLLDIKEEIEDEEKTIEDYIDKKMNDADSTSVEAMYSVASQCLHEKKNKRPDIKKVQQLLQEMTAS
Protocol: Compounds were reconstituted in DMSO to make stock solutions at concentration of 60 mM. THP-1 and OCI-LY10 cells were maintained in RPMI-1640 medium containing 10% FBS, 0.5 μM 2-ME or 20% FBS, 55 μM 2-ME, and 1% L-Glutamine respectively.
Cells were seeded into 6-well plates with 5e6 cells per well. 200 μL of diluted compounds were added to cells to the final concentration of 0.003-10 μM. After 4 or 24 hour-incubation at 37° C., cells were collected into 2 mL Eppendorf tubes and centrifuged at 1,000 rpm for 5 min. The cell pellets were washed with 1×DPBS once and resuspended in 60 μL lysis buffer. The cells were lysed on ice for 10 min, then centrifuged at 14,000 rpm for 10 min at 4° C. and the supernatants were collected for western blots. For THP-1 cells, the lysis buffer contained 40 mM pH 7.4 HEPES, 140 mM NaCl, 2.5 mM EDTA, 1% NP-40, 0.1% SDS, and protease inhibitor cocktail (Roche, Cat. No. 05892791001). For OCI-LY10 cells, RIPAbuffer (Thermo Fisher, 89900) with Halt Protease and Phosphatase Inhibitor Cocktail (Thermo Fisher, 78446) was applied.
The protein concentration of cell lysates was quantified with Pierce™ BCA Protein Assay Kit (Pierce, 23227). Albumin standards at different concentrations were prepared, involving 2,000 ug/mL, 1,500 ug/mL, 1,000 ug/mL, 750 ug/mL, 500 ug/mL, 250 ug/mL, 125 ug/mL, and 25 ug/mL. BCA working reagents were prepared by mixing BCA reagent A with reagent B in 50:1 ratio. 200 μL of the BCA working reagents were added to 25 μL of BCA standard or cell lysates in microplate, and mixed thoroughly on a plate shaker for 30 seconds. After incubation at 37° C. for 30 min, the absorbance of samples at 562 nm were measured with EnVision Plate Reader.
Protein lysates were prepared in NuPAGE™ LDS sample buffer and NuPAGE™ sample reducing agent, and incubated at 95° C. for 5 min. For western blots, 20-25 μg of total proteins were resolved in 4-12% Bis-Tris gels (Introgen, WG1403A) or 10% Bis-Tris Midi gels (Invitrogen, WG1202BOX) running with 1×MOPS SDS running buffer (Invitrogen, NP0001) or 1×MES SDS running buffer (Invitrogen, NP0002). The proteins were transferred to low fluorescence PVDF membranes using the Trans-Blot Turbo Transfer System. Membranes were then blocked in Odyssey blocking buffer at RT for 1 h followed by primary incubation at 4° C. overnight. The primary antibodies were IRAK1 rabbit monoclonal antibody (CST, #4504S, 1:500), IRAK3 rabbit polyclonal antibody (CST, #4369, 1:500), IRAK4 rabbit polyclonal antibody (CST, #4363S, 1:1,000), MyD88 rabbit monoclonal antibody (Abcam, Ab133739, 1:2,000), j3-actin mouse monoclonal antibody (Sigma, A5441, 10,000), and Gapdh mouse monoclonal antibody (Millipore, MAB374, 1:5,000). Membranes were washed three times with 1×TBST, and then incubated with IR Dye 800 CW Goat anti-rabbit (Licor, #926-32211) and IR Dye 700 CW Goat anti-mouse (Licor, #926-68070) secondary antibodies in 1:10,000 dilution at RT for 1 h. The western blot images were obtained using Odyssey Imaging System.
THP-1 results at 24 hours. The letter codes indicate the percentage of IRAK4 degraded after 24 hours: A (>50% degradation), B (>20-50% degradation) and C (<20% degradation)

IRAK4 [2] = target: T1, IRAK4; experiment: OCI-LY-10 MSD assay for IRAK4 DC50; design: endogenous in cells; host or cells: OCI-LY10; conditions: OCI-LY10 cells, 4 hr incubation, concentration required to degrade 50% of protein
Procedure, shortened: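 OCI-Ly10 cells were exposed to compound for 4 hr across a 3-fold, 8-point dilution series. Lysates were made in RIPA buffer, and IRAK4 remaining was measured by MSD sandwich immunoassay with anti-IRAK4 capture and detection antibodies. DC50 was taken from a four-parameter logistic fit.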

OCI-LY10 cells = experiment: OCI-LY-10 CTG cell viability assay (EC50); conditions: Homo sapiens, 96 h, CellTiter-Glo cell viability, 4 days incubation, top concentration 10 μM, read-out: OCI-LY10 IRAK4 EC50
Procedure, shortened: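 OCI-LY10 cells were exposed to a 9-dose, 1:3 series (top 10 μM, 0.2% DMSO) for 4 days at 37 °C. Viability was measured by CellTiter-Glo luminescence, and EC50 came from a three-parameter logistic fit.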

| THP-1 24 h % IRAK4 Degradation (IRAK4 [1]) | DC50 (IRAK4 [2]) [nM] | EC50 (OCI-LY10 cells) [nM] | SMILES |
| --- | --- | --- | --- |
| B (>20-50% degradation) | – | – | O=C(COc1cccc2c1C(=O)N(C1CCC(=O)NC1=O)C2=O)NCCCCCOCCOCCOCCCCCNC(=O)[C@H]1CC[C@H](NC(=O)c2cnc(Nc3ccc4cnccc4n3)cc2NC2CC2)CC1 (stereo partly drawn) [I-1, 6-((1,6-naphthyridin-2-yl)amino)-4-(cyclopropylamino)-N-((1R,4R)-4-((1-((2-(2,6-dioxopiperidin-3-yl)-1,3-dioxoisoindolin-4-yl)oxy)-2-oxo-9,12,15-trioxa-3-azaicosan-20-yl)carbamoyl)cyclohexyl)nicotinamide] |
| C (<20% degradation) | – | – | O=C(COc1cccc2c1C(=O)N(C1CCC(=O)NC1=O)C2=O)NCCOCCOCCOCCNC(=O)[C@H]1CC[C@H](NC(=O)c2cnc(Nc3ccc4cnccc4n3)cc2NC2CC2)CC1 (some centres unmarked) [I-2] |
| C (<20% degradation) | – | – | O=C(COc1cccc2c1C(=O)N(C1CCC(=O)NC1=O)C2=O)NCCCCCOCCCCCNC(=O)[C@H]1CC[C@H](NC(=O)c2cnc(Nc3ccc4cnccc4n3)cc2NC2CC2)CC1 (some centres unmarked) [I-3] |
| A (>50% degradation) | – | – | O=C(COc1cccc2c1C(=O)N(C1CCC(=O)NC1=O)C2=O)NCCCCCNC(=O)[C@H]1CC[C@H](NC(=O)c2cnc(Nc3ccc4cnccc4n3)cc2NC2CC2)CC1 (some centres unmarked) [I-4] |
| B (>20-50% degradation) | – | – | O=C(COc1cccc2c1C(=O)N(C1CCC(=O)NC1=O)C2=O)NCCCCCOCCOCCCCCNC(=O)[C@H]1CC[C@H](NC(=O)c2cnc(Nc3ccc4cnccc4n3)cc2NC2CC2)CC1 (some centres unmarked) [I-5] |
| B (>20-50% degradation) | – | – | O=C(COc1cccc2c1C(=O)N(C1CCC(=O)NC1=O)C2=O)NCCOCCNC(=O)[C@H]1CC[C@H](NC(=O)c2cnc(Nc3ccc4cnccc4n3)cc2NC2CC2)CC1 (some centres unmarked) [I-6] |
| B (>20-50% degradation) | – | – | O=C(COc1cccc2c1C(=O)N(C1CCC(=O)NC1=O)C2=O)NCCCNC(=O)[C@H]1CC[C@H](NC(=O)c2cnc(Nc3ccc4cnccc4n3)cc2NC2CC2)CC1 (some centres unmarked) [I-7] |
| C (<20% degradation) | – | – | O=C(COc1cccc2c1C(=O)N(C1CCC(=O)NC1=O)C2=O)NCCNC(=O)[C@H]1CC[C@H](NC(=O)c2cnc(Nc3ccc4cnccc4n3)cc2NC2CC2)CC1 (some centres unmarked) [I-8] |
| C (<20% degradation) | – | – | Cc1ncsc1-c1ccc(CNC(=O)[C@@H]2C[C@@H](O)CN2C(=O)[C@H](NC(=O)CCCCCCNC(=O)[C@H]2CC[C@H](NC(=O)c3cnc(Nc4ccc5cnccc5n4)cc3NC3CC3)CC2)C(C)(C)C)cc1 [I-10, 6-((1,6-naphthyridin-2-yl)amino)-4-(cyclopropylamino)-N-((1S,4r)-4-((7-(((S)-1-((2S,4R)-4-hydroxy-2-((4-(4-methylthiazol-5-yl)benzyl)carbamoyl)-pyrrolidin-1-yl)-3,3-dimethyl-1-oxobutan-2-yl)amino)-7-oxoheptyl)carbamoyl)cyclohexyl)-nicotinamide] |
| C (<20% degradation) | – | – | O=C1CCC(N2C(=O)c3cccc(NCCOCCOCCOCCOCCNC(=O)[C@H]4CC[C@H](NC(=O)c5cnc(Nc6ccc7cnccc7n6)cc5NC5CC5)CC4)c3C2=O)C(=O)N1 (some centres unmarked) [I-11] |
| – | 50 to 100 | 100 to 500 | Cn1c(=O)n(C2CCC(=O)NC2=O)c2ccc(CCCN3CCO[C@@H](CNCc4ccc(-n5cc(NC(=O)c6coc(-c7ccnc(NCC(F)(F)F)c7)n6)c(C(F)F)n5)cc4)C3)cc21 (some centres unmarked) [I-614] |
| – | > 1000 | > 1000 | CN[C@@H](C)C(=O)N[C@H](C(=O)N1Cc2cc(OCCOCCOCCOCCOCCNCc3nn(C)cc3NC(=O)c3coc(-c4ccnc(NCC(F)(F)F)c4)n3)ccc2C[C@H]1C(=O)N[C@@H]1CCCc2ccccc21)C(C)(C)C [I-682] |
| – | < 50 | < 50 | Cn1c(=O)n(C2CCC(=O)NC2=O)c2ccc(CNCCOCCNCc3ccc(-n4cc(NC(=O)c5coc(-c6ccnc(NCC7CC7)c6)n5)c(C(F)F)n4)cc3)cc21 (centres unmarked) [I-684, 2-[2-(cyclopropylmethylamino)-4-pyridyl]-N-[3-(difluoromethyl)-1-[4-[[2-[2-[[1-(2,6-dioxo-3-piperidyl)-3-methyl-2-oxo-benzimidazol-5-yl]methylamino]ethoxy]ethylamino]methyl]phenyl]pyrazol-4-yl]oxazole-4-carboxamide] |
| – | < 50 | < 50 | Cn1c(=O)n(C2CCC(=O)NC2=O)c2ccc(N3CCN(CCOCCNCc4ccc(-n5cc(NC(=O)c6coc(-c7ccnc(NCC8CC8)c7)n6)c(C(F)F)n5)cc4)CC3)cc21 (centres unmarked) [I-685] |
| – | < 50 | 500 to 1000 | Cn1c(=O)n([C@@H]2CCC(=O)NC2=O)c2cccc(CCCOCCOCCNCc3ccc(-n4cc(NC(=O)c5coc(-c6ccnc(NCC(F)(F)F)c6)n5)c(C(N)=O)n4)cc3)c21 [I-689] |
| – | < 50 | > 1000 | Cn1c(=O)n([C@H]2CCC(=O)NC2=O)c2cccc(CCCOCCOCCNCc3ccc(-n4cc(NC(=O)c5coc(-c6ccnc(NCC(F)(F)F)c6)n5)c(C(N)=O)n4)cc3)c21 [I-690, N-[3-carbamoyl-1-[4-[[2-[2-[3-[(1S)-1-(2,6-dioxo-3-piperidyl)-3-methyl-2-oxo-benzimidazol-4-yl]propoxy]ethoxy]ethylamino]methyl]phenyl]pyrazol-4-yl]-2-[2-(2,2,2-trifluoroethylamino)-4-pyridyl]oxazole-4-carboxamide] |
| – | > 1000 | > 1000 | Cn1ncc2nc(Nc3cnn(CCOCCOCCNc4cccc5c4C(=O)N(C4CCC(=O)NC4=O)C5=O)c3)nc(NC3CCC(N4CCOCC4)CC3)c21 (centres unmarked) [I-692] |

| SMILES | THP-1 24 h % IRAK4 Degradation (IRAK4 [1]) | DC50 (IRAK4 [2]) [nM] | EC50 (OCI-LY10 cells) [nM] |
| --- | --- | --- | --- |
| CN[C@@H](C)C(=O)N[C@H](C(=O)N1Cc2cc(OCCOCCOCCOCCOCCOCCNCc3ccc(-n4cc(NC(=O)c5coc(-c6ccnc(NCC7CC7)c6)n5)c(C(F)F)n4)cc3)ccc2C[C@H]1C(=O)N[C@@H]1CCCc2ccccc21)C(C)(C)C [I-680, 2-[2-(Cyclopropylmethylamino)-4-pyridyl]-N-[3-(difluoromethyl)-1-[4-[[2-[2-[2-[2-[2-[2-[[(3S)-2-[(2S)-3,3-dimethyl-2-[[(2S)-2-(methylamino)propanoyl]amino]butanoyl]-3-[[(1R)-tetralin-1-yl]carbamoyl]-3,4-dihydro-1H-isoquinolin-7-yl]oxy]ethoxy]ethoxy]ethoxy]ethoxy]ethoxy]ethylamino]methyl]-phenyl]pyrazol-4-yl]oxazole-4-carboxamide] | – | > 1000 | > 1000 |

Reference: patent publication US10874743B2, “IRAK degraders and uses thereof” (Kymera Therapeutics, Inc., priority 2017, dated 2020)
